Literature values, collected in patent US5321022A, “Compositions for percutaneous administration” (Kanebo, Ltd., priority 1989, dated 1994).

Conditions: cf: U.S. Pat. No. 4430343

For CCOCCn1c(N2CCCN(C)CC2)nc2ccccc21 [emedastine, 1-(2-Ethoxyethyl)-2-(hexahydro-4-methyl-1H-1,4-diazepin-1-yl)-1H-benzimidazole], the “antihistaminic activity (in words)” value is listed as “strong antihistaminic activity”.
